The values that follow are results of earlier work, collected in patent US10137126B2, “Method of preparing very slightly soluble drug with solid dosage form” (YUNG SHIN PHARM. IND. CO., LTD., priority 2015, dated 2018).

Regarding `CCC(C)n1ncn(-c2ccc(N3CCN(c4ccc(OCC5COC(Cn6cncn6)(c6ccc(Cl)cc6Cl)O5)cc4)CC3)cc2)c1=O` (stereo not drawn) [Itraconazole], the aqueous solubility was 1 g/1,000 ml.

As for `CN1CC(=O)N2[C@H](c3ccc4c(c3)OCO4)c3[nH]c4ccccc4c3C[C@@H]2C1=O` [Tadalafil], the aqueous solubility is given as 2 g/1,000,000 ml. For the compound `C[C@@H](c1ncncc1F)[C@](O)(Cn1cncn1)c1ccc(F)cc1F` [Voriconazole], the aqueous solubility is reported as 1 g/10,000 ml.
